Data on eight molecules can be found in ChEMBL document CHEMBL1135171, “Discovery of potent and selective small molecule NPY Y5 receptor antagonists” (Bioorg Med Chem Lett, 2002).

Assay [1] deals with T1, Alpha-2C adrenergic receptor (Homo sapiens, UniProt P18825).
T1 sequence (P18825 whole entry): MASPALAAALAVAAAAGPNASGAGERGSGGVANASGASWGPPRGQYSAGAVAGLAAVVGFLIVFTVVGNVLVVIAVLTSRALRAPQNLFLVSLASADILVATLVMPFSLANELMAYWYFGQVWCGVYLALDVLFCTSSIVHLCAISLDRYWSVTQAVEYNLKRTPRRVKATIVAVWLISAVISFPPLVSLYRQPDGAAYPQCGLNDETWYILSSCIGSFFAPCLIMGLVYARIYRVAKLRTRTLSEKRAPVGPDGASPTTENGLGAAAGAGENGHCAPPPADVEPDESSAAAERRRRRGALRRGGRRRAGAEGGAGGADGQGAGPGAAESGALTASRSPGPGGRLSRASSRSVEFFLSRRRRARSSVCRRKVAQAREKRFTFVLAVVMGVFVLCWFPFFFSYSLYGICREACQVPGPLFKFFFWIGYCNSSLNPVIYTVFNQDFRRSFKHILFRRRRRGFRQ
Nature of the assay: Bnding affinity against cloned human Alpha-2C adrenergic receptor was evaluated.

Assay [2] deals with D(2) dopamine receptor (Homo sapiens, UniProt P14416). As to the kind of experiment: Binding affinity against cloned human Dopamine receptor D2 was evaluated.
D(2) dopamine receptor, sequence (P14416 whole entry): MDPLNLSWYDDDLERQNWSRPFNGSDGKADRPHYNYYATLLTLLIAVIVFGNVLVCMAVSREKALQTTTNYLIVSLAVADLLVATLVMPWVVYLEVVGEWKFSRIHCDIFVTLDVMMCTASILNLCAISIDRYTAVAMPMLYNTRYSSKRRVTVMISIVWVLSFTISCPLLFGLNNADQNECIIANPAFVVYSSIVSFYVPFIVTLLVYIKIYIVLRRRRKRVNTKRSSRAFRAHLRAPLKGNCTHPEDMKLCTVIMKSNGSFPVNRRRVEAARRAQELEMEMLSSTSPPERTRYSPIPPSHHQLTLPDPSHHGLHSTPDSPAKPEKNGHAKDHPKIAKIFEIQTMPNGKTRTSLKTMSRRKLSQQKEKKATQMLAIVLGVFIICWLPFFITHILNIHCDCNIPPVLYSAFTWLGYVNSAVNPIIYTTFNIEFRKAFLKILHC
The target in assay [3] is T2, Neuropeptide Y receptor type 1 (Rattus norvegicus, UniProt P21555).
T2 sequence (P21555 whole entry): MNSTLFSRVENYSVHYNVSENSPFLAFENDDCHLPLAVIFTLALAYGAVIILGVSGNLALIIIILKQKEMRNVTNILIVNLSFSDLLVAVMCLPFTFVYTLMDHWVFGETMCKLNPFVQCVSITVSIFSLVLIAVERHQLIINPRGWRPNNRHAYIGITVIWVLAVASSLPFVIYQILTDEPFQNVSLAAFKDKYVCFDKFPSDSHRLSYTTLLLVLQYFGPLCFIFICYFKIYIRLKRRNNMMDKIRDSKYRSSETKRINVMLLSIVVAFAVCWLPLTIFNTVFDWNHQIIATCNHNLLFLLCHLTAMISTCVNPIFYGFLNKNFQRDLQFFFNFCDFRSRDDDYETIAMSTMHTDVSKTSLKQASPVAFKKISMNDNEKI
As to the kind of experiment: Functional response of NPY to inhibit forskolin-stimulated cAMP in cells stably transfected with Neuropeptide Y receptor type 1.

Assay [4] concerns the target T3, Neuropeptide Y receptor type 1 (Homo sapiens, UniProt P25929).
T3 sequence (P25929 whole entry): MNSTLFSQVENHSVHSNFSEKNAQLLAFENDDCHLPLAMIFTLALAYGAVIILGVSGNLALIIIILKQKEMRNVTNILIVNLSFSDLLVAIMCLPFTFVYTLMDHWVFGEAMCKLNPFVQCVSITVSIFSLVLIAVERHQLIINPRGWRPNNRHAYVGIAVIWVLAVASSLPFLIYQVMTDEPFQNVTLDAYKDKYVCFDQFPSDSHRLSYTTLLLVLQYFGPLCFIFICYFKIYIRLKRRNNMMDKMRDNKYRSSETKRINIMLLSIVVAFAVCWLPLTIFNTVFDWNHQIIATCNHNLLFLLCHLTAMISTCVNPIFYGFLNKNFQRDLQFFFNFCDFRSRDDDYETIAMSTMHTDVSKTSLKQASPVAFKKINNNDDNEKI
Nature of the assay: Tested for radioligand binding affinity against membranes from COS-7 cells transiently transfected with Neuropeptide Y receptor type 1. It counts as cell membranes.

Assay [5] deals with T4, Neuropeptide Y receptor type 5 (Homo sapiens, UniProt Q15761).
T4 sequence (Q15761 whole entry): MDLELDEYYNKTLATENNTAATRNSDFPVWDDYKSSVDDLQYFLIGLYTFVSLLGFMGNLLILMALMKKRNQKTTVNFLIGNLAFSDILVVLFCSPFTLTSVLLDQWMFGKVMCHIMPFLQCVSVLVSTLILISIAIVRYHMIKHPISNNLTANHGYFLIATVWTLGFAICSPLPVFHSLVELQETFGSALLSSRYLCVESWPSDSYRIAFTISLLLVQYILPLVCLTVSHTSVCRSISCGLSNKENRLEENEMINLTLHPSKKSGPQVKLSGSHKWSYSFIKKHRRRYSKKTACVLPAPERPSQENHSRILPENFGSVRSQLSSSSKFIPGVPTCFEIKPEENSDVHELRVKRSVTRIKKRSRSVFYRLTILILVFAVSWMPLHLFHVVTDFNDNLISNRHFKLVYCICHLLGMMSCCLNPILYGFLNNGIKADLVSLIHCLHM
Nature of the assay: Tested for radioligand binding affinity against membranes from COS-7 cells transiently transfected with Neuropeptide Y receptor type 5. The class given is cell membranes.

The target of assay [6] is T5, Neuropeptide Y receptor type 5 (Rattus norvegicus, UniProt Q63634).
T5 sequence (Q63634 whole entry): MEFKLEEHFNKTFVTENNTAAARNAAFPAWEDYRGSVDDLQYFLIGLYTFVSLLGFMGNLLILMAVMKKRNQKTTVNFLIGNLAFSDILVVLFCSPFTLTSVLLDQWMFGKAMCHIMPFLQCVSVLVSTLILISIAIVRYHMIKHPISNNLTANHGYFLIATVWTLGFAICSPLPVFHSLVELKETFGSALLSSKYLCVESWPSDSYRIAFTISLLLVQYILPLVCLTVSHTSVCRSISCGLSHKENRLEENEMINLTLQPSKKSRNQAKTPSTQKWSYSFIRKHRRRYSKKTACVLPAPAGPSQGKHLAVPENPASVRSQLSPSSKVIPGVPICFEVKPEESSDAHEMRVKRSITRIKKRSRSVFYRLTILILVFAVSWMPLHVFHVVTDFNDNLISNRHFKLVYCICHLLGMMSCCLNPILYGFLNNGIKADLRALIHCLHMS
As to the kind of experiment: Functional response of NPY to inhibit forskolin-stimulated cAMP in cells stably transfected with rat Neuropeptide Y receptor type 5.

One may read the Ki as the dissociation constant of the complex between target and ligand, obtained from inhibition or displacement. A lower Ki goes with higher affinity.

With `O=[N+]([O-])c1ccccc1S(=O)(=O)NC[C@H]1CC[C@H](CNCC2CCc3ccccc3C2)CC1` (some centres undefined), the Ki in assay [1] was 100 nM; in assay [2], 63 nM; in assay [3], 22000 nM; in assay [4], 16000 nM; in assay [5], 8 nM; in assay [6], 18 nM.

As for `O=S(=O)(NCCCCCCNCc1ccc2ccccc2c1)c1ccc2ccccc2c1`, the Ki worked out at 7300 nM in assay [4] and 123 nM in assay [5].

Turning to `O=S(=O)(NC[C@H]1CC[C@H](CNCc2ccc3ccccc3c2)CC1)c1ccccc1C(F)(F)F`, the Ki in assay [4] came to 13000 nM; in assay [5], 10 nM.

For the molecule `O=S(=O)(NC[C@H]1CC[C@H](CNCc2cccc3ccccc23)CC1)c1ccccc1C(F)(F)F`, the Ki in assay [4] stood at 14500 nM; in assay [5] it was 26 nM.

Take `O=[N+]([O-])c1ccccc1S(=O)(=O)NC[C@H]1CC[C@H](CNCc2ccnc3ccccc23)CC1`: the Ki in assay [4] was found to be 48700 nM; in assay [5], 28 nM.

Turning to `Nc1ccccc1S(=O)(=O)NC[C@H]1CC[C@H](CNCC2CCc3ccccc3C2)CC1` (some centres undefined), the Ki in assay [4] was 17200 nM; in assay [5], 10 nM.

In the case of `O=[N+]([O-])c1ccccc1S(=O)(=O)NC[C@H]1CC[C@H](CNCc2ccc3ccccc3n2)CC1`, the affinity in assay [4] corresponds to a Ki of 23700 nM.

Consider `O=S(=O)(NC[C@H]1CC[C@H](CNCC2CCc3ccccc3C2)CC1)c1cccc2ccccc12` (some centres undefined), for which the Ki in assay [4] is 3550 nM; in assay [5], 11 nM.
